Assays:
[1] = Inhibition of cholesterol uptake in MDCK2 cells expressing human NPC1L1 after 1 hr by liquid scintillation counting; assay type: cell-based; conditions: Canis lupus familiaris, MDCK-II
[2] = Inhibition of cholesterol uptake in MDCK2 cells at 20 to 100 uM after 1 hr by liquid scintillation counting; assay type: cell-based, Canis lupus familiaris; conditions: dog, mdck-ii
[3] = Inhibition of cholesterol uptake in MDCK2 cells expressing human NPC1L1 at 20 to 100 uM after 1 hr by liquid scintillation counting; assay type: cell-based, Canis lupus familiaris; conditions: dog, mdck-ii

| IC50 [1] [µM] | inhibition (INH) [2] | inhibition (INH) [3] | SMILES |
| --- | --- | --- | --- |
| 60 | – | – | O=C1[C@H](NC[C@@H](O)c2ccc(F)cc2)[C@@H](c2ccc(O)cc2)N1c1ccc(F)cc1 |
| – | Not Active | Active | O=C1[C@H](CC[C@H](O)c2ccc(F)cc2)[C@@H](c2ccc(O)cc2)N1c1ccc(F)cc1 [EZETIMIBE] |
| 80 | – | – | O=C1[C@H](NC[C@H](O)c2ccc(F)cc2)[C@@H](c2ccc(O)cc2)N1c1ccc(F)cc1 |
